Experimental data from patent US20200399222A1, “PICOLINAMIDES AS FUNGICIDES” (Dow AgroSciences LLC, priority 2018, published 2020).
Where two headings read alike, the source gives them in different places.

System: Phakopsora pachyrhizi
Assay: Asian soybean rust (PHAKPA) disease control on soybean seedlings
Type: in vivo
Settings: High volume application at 25 ppm; for pest or weed control at 25 ppm: Phakopsora pachyrhizi
Experimental: Example C: Evaluation of Fungicidal Activity: Asian Soybean Rust (Phakopsora pachyrhizi; Bayer Code […]) Technical grades of materials were dissolved in acetone, which were then mixed with nine volumes of water containing 0.011% Tween 20. The fungicide solutions were applied onto soybean seedlings using an automated booth sprayer to run-off. All sprayed plants were allowed to air dry prior to further handling. Soybean plants (variety Williams 82) were grown in soil-less Metro mix, with one plant per pot. Two week old seedlings were used for testing. Plants were inoculated either 3 days prior to or 1 day after fungicide treatments. Plants were incubated for 24 h in a dark dew room at 22° C. and 100% relative humidity then transferred to a growth room at 23° C. for disease to develop. Disease severity was assessed on the sprayed leaves.

[1] = 24 h, 1 day protectant, read-out: PHAKPA 1DP (1 Day Protectant) disease control
[2] = 72 h, 3 day curative, read-out: PHAKPA 3DC (3 Day Curative) disease control

Row | Structure (SMILES) | PHAKPA 1DP (1 Day Protectant) disease control (1 day protectant) | PHAKPA 3DC (3 Day Curative) disease control (3 day curative) | pest or weed control at 25 ppm [1] [%] | pest or weed control at 25 ppm [2] [%]
1 | COc1ccnc(C(=O)N[C@H](C(=O)O[C@@H](C)[C@@H](C)c2ccc(F)cc2C)C(C)C)c1OC(=O)C(C)C [Example 209] | A (>80) | A (>80) |  | 
2 | COc1ccnc(C(=O)N[C@H](C)C(=O)O[C@@H](C)[C@H](C)c2ccc(F)cc2C)c1OC(=O)C(C)C [Example 218] |  |  | < 0 | < 80
3 | COc1ccnc(C(=O)N[C@H](C(=O)O[C@H](C)[C@H](C)c2ccc(F)cc2)C(C)C)c1OC(=O)C(C)C [Example 216] |  |  | < 80 | < 0
4 | COc1ccnc(C(=O)N[C@H](C(=O)O[C@@H](C)[C@@H](C)c2ccc(F)cc2C)C(C)C)c1OC(=O)C(C)C [Example 208] | A (>80) | D (≤0) |  | 
5 | COc1ccnc(C(=O)N[C@H](C(=O)O[C@@H](C)[C@H](C)c2ccc(F)cc2C)C(C)C)c1OC(C)=O [Example 185] |  |  | < 0 | < 0
6 | COc1ccnc(C(=O)N[C@@H](C)C(=O)O[C@H](C)[C@@H](C)c2ccccc2C)c1OC(=O)C(C)C [Example 225] |  |  | < 0 | < 0
7 | COc1ccnc(C(=O)N[C@@H](C)C(=O)O[C@H](C)[C@@H](C)c2ccc(F)cc2C)c1OC(C)=O [Example 181] |  |  | < 80 | < 0
8 | COc1ccc([C@@H](C)[C@@H](C)OC(=O)[C@@H](NC(=O)c2nccc(OC)c2OC(=O)C(C)C)C(C)C)c(C)c1 [Example 217] |  |  | < 80 | < 0
9 | COc1ccnc(C(=O)NCC(=O)O[C@@H](C)[C@H](C)c2ccccc2C)c1OC(=O)C(C)C [Example 198] |  |  | < 0 | < 0
10 | COc1ccnc(C(=O)N[C@@H](C)C(=O)O[C@@H](C)[C@H](C)c2ccc(F)cc2C)c1OC(=O)C(C)C [Example 201] |  |  | < 80 | < 80
11 | COc1ccc([C@@H](C)[C@@H](C)OC(=O)[C@H](C)NC(=O)c2nccc(OC)c2OC(=O)C(C)C)c(C)c1 [Example 227] |  |  | < 80 | < 0
12 | COc1ccnc(C(=O)N[C@@H](C)C(=O)O[C@H](C)[C@H](C)c2ccc(F)cc2)c1OC(C)=O [Example 182] |  |  | < 80 | < 80
13 | COc1ccnc(C(=O)N[C@H](C(=O)O[C@H](C)[C@@H](C)c2ccc(F)cc2C)C(C)C)c1OC(C)=O [Example 190] |  |  | < 0 | < 0
14 | COc1ccnc(C(=O)NCC(=O)O[C@@H](C)[C@H](C)c2ccc(F)cc2C)c1OC(=O)C(C)C [Example 197] |  |  | < 0 | < 0
15 | COc1ccc([C@H](C)[C@H](C)OC(=O)[C@@H](NC(=O)c2nccc(OC)c2OC(=O)C(C)C)C(C)C)c(C)c1 [Example 213] |  |  | > 80 | < 80
16 | COc1ccc([C@@H](C)[C@@H](C)OC(=O)[C@H](C)NC(=O)c2nccc(OC)c2OC(C)=O)c(C)c1 [Example 183] |  |  | > 80 | < 80
17 | COc1ccnc(C(=O)N[C@@H](C)C(=O)O[C@@H](C)[C@@H](C)c2ccc(F)cc2)c1OC(=O)C(C)C [Example 229] | D (≤0) | D (≤0) |  | 
18 | COc1ccnc(C(=O)N[C@H](C(=O)O[C@@H](C)[C@@H](C)c2ccc(F)cc2C)C(C)C)c1OC(=O)C(C)C [Example 207] | B (≤80) | D (≤0) |  | 

Row | Structure (SMILES) | PHAKPA 1DP (1 Day Protectant) disease control (1 day protectant) | PHAKPA 3DC (3 Day Curative) disease control (3 day curative) | pest or weed control at 25 ppm [1] [%] | pest or weed control at 25 ppm [2] [%]
19 | COc1ccnc(C(=O)N[C@@H](C)C(=O)O[C@@H](C)[C@@H](C)c2ccccc2C)c1OC(=O)c1ccccc1 [Example 282] |  |  | > 80 | > 80
20 | COc1ccnc(C(=O)N[C@H](C(=O)O[C@@H](C)[C@@H](C)c2ccc(F)cc2C)C(C)C)c1OC(=O)C(C)C [Example 206] | B (≤80) | D (≤0) |  | 
21 | COc1ccnc(C(=O)N[C@@H](C)C(=O)O[C@H](C)[C@H](C)c2ccc(F)cc2)c1OC(=O)C(C)C [Example 226] |  |  | < 0 | < 80
22 | COc1ccnc(C(=O)N[C@H](C(=O)O[C@H](C)[C@H](C)c2ccc(F)cc2C)C(C)C)c1OC(=O)C(C)C [Example 214] |  |  | < 80 | < 80
23 | COc1ccc([C@H](C)[C@H](C)OC(=O)[C@@H](NC(=O)c2nccc(OC)c2OC(C)=O)C(C)C)c(C)c1 [Example 188] |  |  | > 80 | < 80
24 | COc1ccnc2c(=O)n([C@@H](C)C(=O)O[C@@H](C)[C@@H](C)c3ccccc3C)c(=O)oc12 [Example 285] |  |  | > 80 | > 80
25 | COc1ccnc(C(=O)N[C@@H](C)C(=O)O[C@@H](C)[C@H](C)c2ccccc2C)c1OC(=O)C(C)C [Example 228] | D (≤0) | D (≤0) |  | 
26 | COc1ccnc(C(=O)N[C@H](C)C(=O)O[C@@H](C)[C@H](C)c2ccccc2C)c1OC(C)=O [Example 194] |  |  | < 0 | < 0
27 | COc1ccnc(C(=O)N[C@@H](C)C(=O)O[C@@H](C)[C@H](C)c2ccccc2C)c1OC(=O)C(C)C [Example 202] | B (≤80) |  |  | < 0
28 | COc1ccnc(C(=O)N[C@H](C(=O)O[C@H](C)[C@H](C)c2ccc(F)cc2C)C(C)C)c1OC(C)=O [Example 189] |  |  | > 80 | < 80
29 | COc1ccc([C@H](C)[C@H](C)OC(=O)[C@H](C)NC(=O)c2nccc(OC)c2OC(=O)C(C)C)c(C)c1 [Example 230] | D (≤0) | D (≤0) |  | 
30 | COc1ccnc(C(=O)N[C@H](C)C(=O)O[C@H](C)[C@H](C)c2ccc(F)cc2C)c1OC(C)=O [Example 195] |  |  | < 80 | < 0
31 | COc1ccnc(C(=O)NCC(=O)O[C@@H](C)[C@@H](C)c2ccc(F)cc2)c1OC(=O)C(C)C [Example 199] |  |  | < 0 | < 0
32 | COc1ccnc(C(=O)N[C@H](C(=O)O[C@@H](C)[C@H](C)c2ccc(F)cc2C)C(C)C)c1OC(=O)C(C)C [Example 210] |  |  | < 0 | < 0
33 | COc1ccnc(C(=O)N[C@@H](C)C(=O)O[C@@H](C)[C@@H](C)c2ccc(F)cc2)c1OC(=O)C(C)C [Example 203] | A (>80) | B (≤80) |  | 
34 | COc1ccnc(C(=O)N[C@H](C(=O)O[C@@H](C)[C@@H](C)c2ccc(F)cc2)C(C)C)c1OC(C)=O [Example 187] |  |  | > 80 | < 0
35 | CCCC(=O)Oc1c(OC)ccnc1C(=O)N[C@@H](C)C(=O)O[C@@H](C)[C@@H](C)c1ccccc1C [Example 279] |  |  | > 80 | > 80
36 | COc1ccnc(C(=O)N[C@@H](C)C(=O)O[C@@H](C)[C@@H](C)c2ccccc2C)c1OC(=O)C1CC1 [Example 281] |  |  | > 80 | > 80
